Laboratory results published in patent US9925166B2, “Methods of treating an overweight or obese subject” (Zafgen, Inc., priority 2008, dated 2018).

Molecular target: T1, MetAP-2 (Mus musculus, UniProt O08663)
T1 construct: from tissue; host or cells: adipose tissue of diet-induced obese mice
Experiment: ELISA assay of MetAP-2 binding (free MetAP-2) in adipose tissue lysates of dosed diet-induced obese mice
Experimental: Diet-induced obese mice were orally (p.o.) administered fumagillin (3 mg/kg or 10 mg/kg; Medivet), subcutaneously administered (s.c.) TNP-470 (1 mg/kg, 3 mg/kg, 10 mg/kg, or 30 mg/kg; synthesized by standard semi-synthetic processes as described in European Patent EP 0 357 061), or administered a solution of 10% dimethyl sulfoxide (DMSO; control; Sigma-Aldrich). Mice were sacrificed and adipose tissue samples were obtained.
An ELISA assay of MetAP-2 binding was conducted with tissue lysates prepared from the adipose tissue samples. The MetAP-2 ELISA is a quantitative assay to determine the amount of free MetAP-2 in tissue or cell lysates, i.e., MetAP-2 not covalently bound to fumagillin or TNP-470. The assay takes advantage of the fact that biotinylated fumagillin can bind to the catalytic site of the MetAP-2 enzyme only if this site has not already been derivatized by fumagillin or TNP-470. The biotinylated MetAP-2-inhibitor complex was captured on a streptavidin-coated plate and detected with a rabbit anti-MetAP-2 antibody (Zymed Laboratories Inc.). Horseradish peroxidase-conjugated anti-rabbit immunoglobulin G (IgG) was added to detect the MetAP-2 antibody immobilized to the streptavidin-coated plate with its covalently bound biotinylated fumagillin. Tetramethylbenzidine (TMB) substrate was added and the reaction was stopped by addition of sulfuric acid. Analysis was performed by determining absorption at 450 nm. Human recombinant MetAP-2 (R&D Systems), pre-bound to biotinylated fumagillin, was used to generate a standard curve.

T1 sequence (O08663 whole entry): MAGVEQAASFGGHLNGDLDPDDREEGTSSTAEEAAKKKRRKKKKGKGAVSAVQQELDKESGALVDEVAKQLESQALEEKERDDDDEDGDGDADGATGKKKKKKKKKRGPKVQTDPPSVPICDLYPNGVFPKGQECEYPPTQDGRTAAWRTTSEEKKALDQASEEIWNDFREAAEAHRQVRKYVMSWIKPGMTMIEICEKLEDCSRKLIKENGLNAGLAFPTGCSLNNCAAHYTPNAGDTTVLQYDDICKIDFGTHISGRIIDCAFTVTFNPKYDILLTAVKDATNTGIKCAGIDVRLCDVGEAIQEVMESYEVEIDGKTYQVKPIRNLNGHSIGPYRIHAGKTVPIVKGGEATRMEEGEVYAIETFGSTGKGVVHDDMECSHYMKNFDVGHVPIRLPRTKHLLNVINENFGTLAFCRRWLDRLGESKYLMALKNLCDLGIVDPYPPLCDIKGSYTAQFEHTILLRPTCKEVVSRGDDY

## CO[C@@H]1[C@H](OC(=O)NC(=O)CCl)CC[C@]2(CO2)[C@H]1[C@@]1(C)O[C@@H]1CC=C(C)C [TNP-470]
TNP-470 subcutaneously 1, 3, 10 or 30 mg/kg, diet-induced obese mice, FIG. 1
  binding to MetAP-2 in adipose tissue: binds MetAP-2 in a dose dependent manner
s.c. TNP-470 vs p.o. fumagillin, 3 mg/kg and 10 mg/kg
  binding to MetAP-2 in adipose tissue compared to orally administered fumagillin at the same dosages: greater binding
